Counter-ions that a name gives are not always drawn.
What was measured:
[1] = test system: h-Tel quadruplex (Q) DNA, 5'-biotin-d[AG3(T2AG3)3] (DNA, G4) AGGGTTAGGGTTAGGGTTAGGG; experiment: surface plasmon resonance; details: 200 mM KCl; 10 mM HEPES, 3 mM EDTA, 0.01% P20, pH 7.4
[2] = molecular target: T1, human recombinant β2 adrenergic receptor (Homo sapiens, UniProt P07550); experiment: β2-adrenergic receptor binding assay (CHO expressing cells)
T1 construct: expressed in transfected cells; host or cells: CHO
Procedure: (§1) For hERG study, HEK293 cells were cultured (1–7 days) in DMEM/GlutaMax-1 + 10% FBS and were plated on collagen-coated dishes (about 2×10^4 cells/dish). The cell was held at -80 mV. A 50-millisecond pulse to -40 mV was delivered to measure the leaking currents, which were subtracted from the tail currents online. […] This paradigm was delivered once every 5 seconds to monitor the current amplitude. After the current amplitude stabilized, the test compound was delivered to the extracellular medium by a rapid solution changer perfusion system. During perfusion, the cell was repetitively stimulated with the protocol described above, and the current amplitude was continuously monitored. Data were acquired and analyzed by using pClamp (Axon Instruments), and Excel (Microsoft), and are reported as mean and individual values. The degree of inhibition (%) was obtained by measuring the tail current amplitude before and after drug superfusion (the difference current was normalized to control and multiplied by 100 to obtain the percent of inhibition). […] The concentration-response relationship of each compound was constructed from the percentage reductions of current amplitude by sequential concentrations. β2-adrenergic receptor CHO expressing cells were used for the receptor inhibition assay as described. The results are expressed as a percent of inhibition of control specific binding (100 - (measured specific binding/control specific binding) × 100)) obtained in the presence of the test compounds. The specific ligand binding to the receptors is defined as the difference between the total binding and the nonspecific binding determined in the presence of an excess of unlabelled ligand. All the in-vivo experiments were carried out at the Regina Elena Cancer Institute.
Inhibition of receptor was reported as inhibition of control specific binding (100 - (measured specific binding/control specific binding) × 100) obtained in the presence of the test compounds.

[3] = test system: h-Tel (anti-parallel) quadruplex; experiment: CD thermal unfolding of h-Tel quadruplex; format: binding, human
Procedure: CD spectra were recorded on an Applied Photophysics Pi-Star-180 spectrophotometer (Applied Photophysics Ltd, Surrey, UK). The optical system was configured with a 75 W Xe lamp, circular light polarizer and end-mounted photomultiplier. The instrument had previously been calibrated with (D)-camphorsulfonic acid. Temperature was regulated using a Neslab RTE-300 circulating programmable water bath (Neslab Inc). CD spectra were recorded at 298 K in a 10 mm path length cell over a wavelength range of 215–345 nm in steps of either 1 0r 2 nm, with 3 nm entrance/exit slit widths: the number of counts was set to 10,000 with adaptive sampling set to 500,000. The spectra were corrected by subtracting the spectrum of the same buffer solution of 100 mM potassium chloride and 10 mM potassium phosphate at pH 7.0. Annealing and melting profiles were recorded using a thermoelectric temperature controller (Melcor) on 4 μM DNA samples with and without 3.5 mol.equiv. of ligands using 0.5 K temperature increments and a cooling or heating rate of 0.2 K/min over the temperature range 298-368 K.
This analysis was extended to examine the effects of ligand binding on thermal stability by measuring the unfolding curves at 290 nm of the complexes formed in K^+ solution, corresponding to the CD spectra shown in Figure 4a. Monitoring the thermal unfolding transition for h-Tel produces a sigmoidal unfolding curve with a transition mid-point Tm value of 72 ± 3°C (Figure 4c). All three ligands show significant effects in enhancing the stability of the quadruplex by shifting the Tm values to higher temperatures (∆Tm ~ 15-19°C compared to h-Tel without bound ligands) (Table 1).

BJ-EHLT fibroblasts = experiment: Proliferation assay, transformed fibroblasts; format: cell-based, human; details: 0.5 μM, culture day 2 to 8
Procedure: (§2) BJ fibroblasts expressing hTERT (BJ-hTERT) or hTERT and SV40 early region (BJ-EHLT), were obtained as previously reported. Cells were grown in Dulbecco Modified Eagle Medium (D-MEM, Invitrogen Carlsbad, CA, USA) supplemented with 10% fetal calf serum, 2 mM L-glutamin and antibiotics.
(§3) 5 × 10^4 cells were seeded in 60-mm Petri plates (Nunc, MasciaBrunelli, Milano, Italy) and 24 h after plating, 0.5 μM of freshly dissolved compound was added to the culture medium. Cell counts (Coulter Counter, Kontron Instruments, Milano, Italy) and viability (trypan blue dye exclusion) were determined daily, from day 2 to day 8 of culture.

BJ-hTERT fibroblasts = experiment: Proliferation assay, normal telomerised fibroblasts; format: cell-based, human; details: 0.5 μM, culture day 2 to 8
Procedure: as §2, §3

[4] = test system: γH2AX in BJ-EHLT fibroblasts; experiment: Immunofluorescence for γH2AX (DNA damage response); format: cell-based, human; details: 0.5 μM, 24 hrs
Procedure: (§4) Cells were fixed in 2% formaldehyde and permeabilized in 0.25% Triton X100 in PBS for 5 min at room temperature. For immunolabeling, cells were incubated with primary antibody, then washed in PBS and incubated with the secondary antibodies. The following primary antibodies were used: pAb and mAb anti-TRF1 (Abcam Ltd.; Cambridge UK); mAb (Upstate, Lake Placid, NY) and pAb anti-γH2AX (Abcam). The following secondary antibody were used: TRITC conjugated Goat anti Rabbit, FITC conjugated Goat anti Mouse (Jackson ImmunoResearch Europe Ltd., Suffolk, UK). Fluorescence signals were recorded by using a Leica DMIRE2 microscope equipped with a Leica DFC 350FX camera and elaborated by a Leica FW4000 deconvolution software (Leica, Solms, Germany). This system permits to focus single planes inside the cell generating 3D high-resolution images. For quantitative analysis of γH2AX positivity, 200 cells on triplicate slices were scored. For TIF’s analysis, in each nucleus a single plane was analyzed and at least 50 nuclei per sample were scored.

[5] = test system: Telomere dysfunction Induced Foci in BJ-EHLT fibroblasts; experiment: TIF analysis (γH2AX/TRF1 co-localization); format: cell-based, human; details: 24 hrs
Procedure: as §4

[6] = test system: telomere aberrations in BJ-EHLT fibroblasts; experiment: Telomere FISH on metaphase spreads; format: cell-based, human; details: 0.5 μM, 72 hrs
Procedure: For metaphase chromosome preparation cells were treated with demecolcine (Sigma, Milan, Italy) 0.1 mg/ml for 4 h and then harvested and washed in 75 mM KCl for 5 min at 37°C. After centrifugation cells were fixed in MeOH/acetic acid 3:1 overnight and then spread on slides. Hybridization with rhodamine-coupled PNA was performed as described. For each sample 20 metaphases per slice on triplicate were scored. Images of the metaphases were captured with a 100 × objective.

NCI60 panel = NCI60 panel growth inhibition; format: cell-based, human
[7] = test system: h-Tel 5'-d[AGGG(TTAGGG)3]-3' (DNA, G4) AGGGTTAGGGTTAGGGTTAGGG; experiment: CD melting at 290 nm; details: 110 mM K+ (100 mM KCl, potassium phosphate); 10 mM potassium phosphate, pH 7.0; 4 μM DNA, 3.5 mol equiv. ligand; Tm 89 ± 3
[8] = test system: duplex (D) DNA hairpin, 5'-biotin-CGA3T3C(CT)2GA3T3CG (DNA, hairpin) CGAAATTTCCTCTGAAATTTCG; experiment: surface plasmon resonance; details: 200 mM KCl; 10 mM HEPES, 3 mM EDTA, 0.01% P20, pH 7.4
[9] = test system: h-Tel quadruplex DNA 5′-d[AGGG(TTAGGG)3]-3′; experiment: Surface plasmon resonance, quadruplex DNA; details: for Surface plasmon resonance K, Quadruplex (Q) DNA: 10 mM HEPES, 200 mM KCl, 3 mM EDTA, 0.01% P20, pH 7.4, equilibrium binding constant
Text: Oligonucleotides 5′-biotin-d[AG3(T2AG3)3] quadruplex and 5′-biotin-CGA3T3C(CT)2GA3T3CG were purchased from Midland Certified Reagent Company (Midland, TX).
In the present work these measurements were repeated comparing ligand binding to the same h-Tel sequence but with a different duplex sequence 5′-d[CGA3T3C(CT)2GA3T3CG]-3′ as comparator.

[10] = test system: h-Tel 5'-d[AGGG(TTAGGG)3]-3' (DNA, G4) AGGGTTAGGGTTAGGGTTAGGG; experiment: CD spectroscopy, induced anti-parallel structure; details: no significant K+; 298 K; 3.5 molar equivalents of ligand; band at 290 nm emerges
hERG = molecular target: T2, hERG (Homo sapiens, UniProt Q12809); experiment: hERG tail current inhibition, patch clamp assay; format: cell-based; details: human, HEK293 cells (hERG study), 10 μM, HEK293 cells, read-out: hERG % inhib. (10 μM)
T2 construct: expressed in transfected cells; host or cells: HEK293
Procedure: as §1, with “Institute. All procedures involving animals and care were performed in compliance with our institutional animal care guidelines and with international directives (directive 2010/63/EU of the European parliament and of the council; Guide for the Care and Use of Laboratory Animals, United States National Research Council, 2011).” for “Institute.”

T1 sequence (P07550 whole entry): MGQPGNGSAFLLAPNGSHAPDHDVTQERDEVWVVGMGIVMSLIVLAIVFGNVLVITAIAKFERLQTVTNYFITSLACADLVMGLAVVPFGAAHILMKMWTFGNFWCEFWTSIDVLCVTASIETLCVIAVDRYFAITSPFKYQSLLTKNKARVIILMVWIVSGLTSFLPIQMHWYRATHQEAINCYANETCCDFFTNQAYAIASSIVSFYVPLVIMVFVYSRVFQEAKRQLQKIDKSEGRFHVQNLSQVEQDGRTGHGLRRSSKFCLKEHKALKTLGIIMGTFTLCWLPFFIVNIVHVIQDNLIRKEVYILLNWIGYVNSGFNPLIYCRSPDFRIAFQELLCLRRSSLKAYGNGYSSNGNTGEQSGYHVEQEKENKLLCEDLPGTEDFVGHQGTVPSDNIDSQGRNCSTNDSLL
T2 sequence (Q12809 whole entry): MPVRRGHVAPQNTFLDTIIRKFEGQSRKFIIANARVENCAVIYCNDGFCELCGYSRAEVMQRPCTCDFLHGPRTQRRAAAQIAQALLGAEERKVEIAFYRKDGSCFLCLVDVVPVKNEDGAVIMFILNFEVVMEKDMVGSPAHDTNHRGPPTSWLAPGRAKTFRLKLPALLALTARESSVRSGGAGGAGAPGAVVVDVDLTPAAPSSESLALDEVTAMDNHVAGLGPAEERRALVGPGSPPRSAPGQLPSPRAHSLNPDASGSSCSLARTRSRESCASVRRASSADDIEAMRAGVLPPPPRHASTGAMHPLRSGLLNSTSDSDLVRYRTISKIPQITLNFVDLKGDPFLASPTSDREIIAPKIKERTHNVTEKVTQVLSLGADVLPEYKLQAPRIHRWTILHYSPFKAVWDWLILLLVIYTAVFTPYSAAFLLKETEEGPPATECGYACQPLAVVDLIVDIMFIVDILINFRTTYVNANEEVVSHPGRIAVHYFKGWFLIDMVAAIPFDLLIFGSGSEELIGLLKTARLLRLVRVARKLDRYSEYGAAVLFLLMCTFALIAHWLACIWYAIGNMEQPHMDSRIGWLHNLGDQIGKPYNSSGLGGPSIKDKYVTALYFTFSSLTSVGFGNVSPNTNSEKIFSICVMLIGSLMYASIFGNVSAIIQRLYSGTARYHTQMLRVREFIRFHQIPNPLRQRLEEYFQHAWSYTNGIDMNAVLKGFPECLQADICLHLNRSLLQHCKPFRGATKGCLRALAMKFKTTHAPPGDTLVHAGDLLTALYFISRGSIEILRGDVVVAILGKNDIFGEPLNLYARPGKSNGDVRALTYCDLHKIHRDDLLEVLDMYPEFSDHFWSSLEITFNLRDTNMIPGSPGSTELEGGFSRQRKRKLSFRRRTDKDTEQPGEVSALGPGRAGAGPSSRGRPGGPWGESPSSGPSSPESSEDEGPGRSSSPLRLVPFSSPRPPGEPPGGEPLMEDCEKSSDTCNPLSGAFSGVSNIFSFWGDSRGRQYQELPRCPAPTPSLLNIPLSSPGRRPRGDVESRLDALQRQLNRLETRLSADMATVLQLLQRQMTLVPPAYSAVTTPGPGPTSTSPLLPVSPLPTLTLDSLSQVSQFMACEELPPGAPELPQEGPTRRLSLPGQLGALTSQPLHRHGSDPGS

## CC[n+]1c2c3c(cc(C)cc3c3cc(F)ccc31)N(C)c1ccc(F)cc1-2
[1]
  K: 600000 M⁻¹

## CC[n+]1c2c3c(cc(C)cc3c3cc(F)ccc31)N(C)c1ccc(F)cc1-2 (as salt: sulfate) [Compound 8, 13-Ethyl-3,11-difluoro-6,8-dimethyl-8H-quino[4,3,2-kl]acridinium trifluoromethosulfate]
other
  melting point: > 250 °C (dec.)

## CC(=O)Nc1ccc2c3cccc4c3c([n+](C)c2c1)-c1ccccc1N4C [Compound 2, 2-Acetylamino-8,13-dimethyl-8H-quino[4,3,2-kl]-acridinium iodide]
[2]; 10 μM, inhibition of control specific binding, CHO cells, read-out: B2 adrenergic % inhib. (10 μM)
  inhibition at 10 µM: 24%
[2]; comparing 1 to the compound
  decay of β2-adrenergic receptor inhibition compared to 1: 75%
[3]; compared to h-Tel without bound ligand (Tm 70 ± 3)
  CD study thermal stability ∆Tm: 19 °C
[3]; h-Tel 4 μM with 3.5 mol.equiv. ligand, K+ solution, unfolding at 290 nm
  CD study thermal stability Tm: 89 ± 3 °C
BJ-EHLT fibroblasts
  day of maximum effect on cell proliferation: 6 days
BJ-hTERT fibroblasts
  inhibition of cell proliferation in normal telomerized fibroblasts: did not induce inhibition of cell proliferation
[4]
  percentage of cells positive for γH2AX: quite similar to compound 1
[5]; cells with more than four γH2AX/TRF1 co-localizations
  percentage of TIF-positive cells: comparable levels with respect to 1
[5]; mean
  number of TIFs per nucleus: ca. eight
[6]
  telomere aberrations (telomere doublets, sister telomere fusions): quantitatively similar to the lead compound
NCI60 panel; Homo sapiens, NCI data, read-out: Mean GI50 value from the NCI60 panel
  GI50: 12 µM
NCI60 panel; several human cancer cell lines
  effect on cell proliferation in a panel of different histotype tumor cell lines: maintained an anti-proliferative effect
[7]
  ∆Tm: 19 °C
[1]
  K: 1.5e+07 M⁻¹
[8]
  K: 400000 M⁻¹
[9]
  Surface plasmon resonance K, Quadruplex (Q) DNA: 1.5e+07 M⁻¹
[10]
  binding: yes

## CC[n+]1c2c3c(cc(C)cc3c3cc(F)ccc31)N(C)c1ccc(F)cc1-2 [Compound 8, 13-Ethyl-3,11-difluoro-6,8-dimethyl-8H-quino[4,3,2-kl]acridinium trifluoromethosulfate]
hERG
  inhibition at 10 µM: 18%
[9]
  Surface plasmon resonance K, Quadruplex (Q) DNA: 600000 M⁻¹
[9]; relative to compound 1
  fold reduction in on-target effect against h-Tel DNA sequence (SPR) relative to 1: > 10 fold
